The values that follow come from ChEMBL document CHEMBL1136523, “A novel estrogen receptor ligand template” (Bioorg Med Chem Lett, 2003).

In experiment [1] the target is T1, Estrogen receptor (Homo sapiens, UniProt P03372).
T1 sequence (P03372 whole entry): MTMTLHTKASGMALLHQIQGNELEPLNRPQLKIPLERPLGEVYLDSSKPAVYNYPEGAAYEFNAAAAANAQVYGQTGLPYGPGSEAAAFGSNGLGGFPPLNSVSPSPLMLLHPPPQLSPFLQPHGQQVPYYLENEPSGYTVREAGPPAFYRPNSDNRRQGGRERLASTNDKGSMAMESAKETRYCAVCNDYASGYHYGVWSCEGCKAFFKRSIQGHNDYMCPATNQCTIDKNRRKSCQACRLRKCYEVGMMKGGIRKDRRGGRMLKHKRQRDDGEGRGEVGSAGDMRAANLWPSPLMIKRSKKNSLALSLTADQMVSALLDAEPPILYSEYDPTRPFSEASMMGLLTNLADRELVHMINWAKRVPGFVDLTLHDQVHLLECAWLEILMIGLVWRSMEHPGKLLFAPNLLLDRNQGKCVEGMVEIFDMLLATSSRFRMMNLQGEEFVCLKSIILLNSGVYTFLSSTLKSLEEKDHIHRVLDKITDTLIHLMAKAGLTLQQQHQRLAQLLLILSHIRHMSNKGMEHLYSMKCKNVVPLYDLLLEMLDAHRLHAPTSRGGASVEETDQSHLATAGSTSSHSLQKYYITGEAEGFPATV
In words: In vitro binding affinity for estrogen receptor alpha.

Experiment [2] deals with Estrogen receptor (Homo sapiens, UniProt Q92731+P03372). In words: Percent agonistic activity for estrogen-induced pS2 expression in MCF-7 cells. The format is functional, cell-based. The settings on record: mcf7.
The target of a further experiment is Estrogen receptor beta (Homo sapiens, UniProt Q92731).
Chain of Estrogen receptor beta (Q92731 whole entry): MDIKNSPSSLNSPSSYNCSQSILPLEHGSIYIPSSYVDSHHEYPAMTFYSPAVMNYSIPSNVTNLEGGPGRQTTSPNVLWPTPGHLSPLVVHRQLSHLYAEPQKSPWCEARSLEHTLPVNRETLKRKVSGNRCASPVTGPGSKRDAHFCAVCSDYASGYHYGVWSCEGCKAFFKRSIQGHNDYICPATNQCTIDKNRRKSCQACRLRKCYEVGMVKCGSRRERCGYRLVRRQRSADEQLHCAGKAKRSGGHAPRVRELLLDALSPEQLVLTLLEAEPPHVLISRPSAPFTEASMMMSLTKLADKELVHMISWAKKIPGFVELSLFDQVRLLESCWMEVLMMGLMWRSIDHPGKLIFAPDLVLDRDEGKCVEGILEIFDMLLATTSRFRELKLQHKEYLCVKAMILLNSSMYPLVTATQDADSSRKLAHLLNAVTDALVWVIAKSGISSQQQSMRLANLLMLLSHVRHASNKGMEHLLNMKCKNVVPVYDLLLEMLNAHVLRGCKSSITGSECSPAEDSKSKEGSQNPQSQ

Description for Estrogen receptor beta: In vitro binding affinity for estrogen receptor beta

In the case of `OC[C@@]12CC=C[C@@H](C1)[C@H](c1ccc(O)cc1)CC2`, the IC50 (in general, the concentration at which inhibition is half-maximal) stood at 550 nM on Estrogen receptor [1] and 75 nM on Estrogen receptor beta. Further, the EC50 (usually the concentration needed to bring the measured effect to its halfway point) on Estrogen receptor [2] is < 10 nM.
